For the experiment, the target named is T1, RXFP1 (Homo sapiens, UniProt Q9HBX9).
T1 construct: OVCAR5 cells expressing endogenous RXFP1; endogenous in cells; host or cells: OVCAR5 cells
T1 sequence (Q9HBX9 1-757): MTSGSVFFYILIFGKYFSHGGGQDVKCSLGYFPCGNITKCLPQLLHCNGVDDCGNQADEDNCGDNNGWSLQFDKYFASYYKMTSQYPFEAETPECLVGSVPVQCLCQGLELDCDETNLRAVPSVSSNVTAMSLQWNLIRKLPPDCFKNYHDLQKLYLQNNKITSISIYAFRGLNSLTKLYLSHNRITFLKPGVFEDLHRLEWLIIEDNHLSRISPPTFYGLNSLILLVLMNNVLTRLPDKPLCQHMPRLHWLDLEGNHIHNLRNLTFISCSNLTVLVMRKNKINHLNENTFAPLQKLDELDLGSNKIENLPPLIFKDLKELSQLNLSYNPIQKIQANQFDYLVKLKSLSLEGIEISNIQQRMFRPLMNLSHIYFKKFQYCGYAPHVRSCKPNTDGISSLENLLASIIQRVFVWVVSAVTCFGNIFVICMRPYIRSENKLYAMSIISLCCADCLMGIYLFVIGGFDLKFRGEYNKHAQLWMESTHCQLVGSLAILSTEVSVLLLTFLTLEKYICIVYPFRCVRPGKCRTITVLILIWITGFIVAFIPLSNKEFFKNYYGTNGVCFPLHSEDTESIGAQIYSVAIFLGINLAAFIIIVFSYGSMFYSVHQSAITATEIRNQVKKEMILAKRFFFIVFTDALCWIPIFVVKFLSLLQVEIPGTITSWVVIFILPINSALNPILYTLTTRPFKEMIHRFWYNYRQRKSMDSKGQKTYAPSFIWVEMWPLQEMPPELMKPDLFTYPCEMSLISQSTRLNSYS
The experiment is described as follows: OVCAR5 cAMP assay (HTRF), RXFP1 agonist activity. Type of experiment: cell-based. The settings on record: for EC50: OVCAR5 cells, cAMP HTRF, read-out: EC50 (nM), OVCAR 5 cells (cAMP); for Emax: OVCAR-5, maximal cAMP relative to H2-relaxin maximum (100%), read-out: EMax, OVCAR 5 cells (cAMP). Summed up: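 cAMP accumulation readout: after 1 mM IBMX for 40 min, endogenous-RXFP1 OVCAR5 cells got rising peptide concentrations without FCS, 30 min, 37° C, then lysis with HTRF cAMP reagents. Nonlinear regression gave EC50; Emax expressed relative to H2-relaxin maximum, same occasion.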

*1 amine or outer side, *2 acyl side, *3 side chain or, on linkers, in order; H or OH if unused. Where a SMILES comes first, the peptide text is derived from it. Side-chain parts run from the residue outwards. [ ]: non-standard residue; d: D form. The star is where a group is joined. γGlu = O=C(O)[C@H](CCC(=O)[*:2])N[*:1]; Stearoyl = CCCCCCCCCCCCCCCCCC(=O)*; Palmitoyl = CCCCCCCCCCCCCCCC(=O)*; Nle = CCCC[C@H](N)C(=O)O; AEEA = NCCOCCOCC(=O)O; Aib = CC(C)(N)C(=O)O

Regarding `CCCCCCCCCCCCCCCC(=O)N[C@@H](CCC(=O)N[C@@H](CCC(=O)N[C@@H](CCC(=O)NCCOCCOCC(=O)NCCOCCOCC(=O)NCCOCCOCC(=O)NCCOCCOCC(=O)NCCCC[C@H](NC(=O)[C@H](CCCCNC(C)=O)NC(=O)[C@H](CCCCN)NC(=O)[C@H](CCCNC(=N)N)NC(=O)C(C)(C)NC(=O)[C@H](CO)NC(=O)[C@H](Cc1c[nH]c2ccccc12)NC(=O)[C@@H](NC(=O)[C@H](CO)NC(=O)[C@H](CCCC)NC(=O)CNC(=O)[C@H](CCC(=O)O)NC(=O)C(C)(C)NC(=O)C(C)(C)NC(=O)[C@@H](NC(=O)[C@H](CCCCNC(C)=O)NC(=O)[C@H](C)NC(=O)[C@H](CCCNC(=N)N)NC(=O)[C@@H](NC(=O)[C@H](CCCCN)NC(=O)[C@H](CCC(=O)O)NC(=O)[C@H](CCCNC(=N)N)NC(=O)CNC(=O)[C@H](CCC(=O)O)NC(=O)[C@H](CC(C)C)NC(C)=O)C(C)C)[C@@H](C)CC)[C@@H](C)O)C(N)=O)C(=O)O)C(=O)O)C(=O)O` [compound 64] (Ac-LEGREKVRAK(Ac)I[Aib][Aib]EG[Nle]STWS[Aib]RKK(Ac)K([AEEA-AEEA-AEEA-AEEA-γGlu-γGlu-γGlu-Palmitoyl])-NH2), the EC50 was 0.2 nM and the Emax amounted to 81%. As to `CCCCCCCCCCCCCCCC(=O)N[C@@H](CCC(=O)N[C@@H](CCC(=O)NCCCC[C@H](NC(=O)[C@H](CCCCN)NC(=O)[C@H](CCCNC(=N)N)NC(=O)C(C)(C)NC(=O)[C@H](CO)NC(=O)[C@H](Cc1c[nH]c2ccccc12)NC(=O)[C@@H](NC(=O)[C@H](CO)NC(=O)[C@H](CCCC)NC(=O)CNC(=O)[C@H](CCC(=O)O)NC(=O)C(C)(C)NC(=O)C(C)(C)NC(=O)[C@@H](NC(=O)[C@H](C)NC(=O)[C@H](C)NC(=O)[C@H](CCCNC(=N)N)NC(=O)[C@@H](NC(=O)[C@H](CCCCN)NC(=O)[C@H](CCC(=O)O)NC(=O)[C@H](CCCNC(=N)N)NC(=O)CNC(=O)[C@H](CCC(=O)O)NC(=O)[C@H](CC(C)C)NC(=O)[C@H](CCC(=O)O)NC(C)=O)C(C)C)[C@@H](C)CC)[C@@H](C)O)C(N)=O)C(=O)O)C(=O)O` [compound 4] (Ac-ELEGREKVRAAI[Aib][Aib]EG[Nle]STWS[Aib]RKK([γGlu-γGlu-Palmitoyl])-NH2), the Emax was 99%. As to `CCCCCCCCCCCCCCCC(=O)N[C@@H](CCC(=O)N[C@@H](CCC(=O)N[C@@H](CCC(=O)NCCOCCOCC(=O)NCCCC[C@H](NC(=O)COCCOCCNC(=O)[C@H](CCCCN)NC(=O)[C@H](CCCNC(=N)N)NC(=O)C(C)(C)NC(=O)[C@H](CO)NC(=O)[C@H](Cc1c[nH]c2ccccc12)NC(=O)[C@@H](NC(=O)[C@H](CO)NC(=O)[C@H](CCCC)NC(=O)CNC(=O)[C@H](CCC(=O)O)NC(=O)C(C)(C)NC(=O)C(C)(C)NC(=O)[C@@H](NC(=O)[C@H](CCC(N)=O)NC(=O)[C@H](C)NC(=O)[C@H](CCCNC(=N)N)NC(=O)[C@@H](NC(=O)[C@H](CCCCN)NC(=O)[C@H](CCC(=O)O)NC(=O)[C@H](CCCNC(=N)N)NC(=O)CNC(=O)[C@H](CCC(=O)O)NC(=O)[C@H](CC(C)C)NC(C)=O)C(C)C)[C@@H](C)CC)[C@@H](C)O)C(N)=O)C(=O)O)C(=O)O)C(=O)O` [compound 12] (Ac-LEGREKVRAQI[Aib][Aib]EG[Nle]STWS[Aib]RK[AEEA]K([AEEA-γGlu-γGlu-γGlu-Palmitoyl])-NH2), the EC50 is 26.7 nM and the Emax amounted to 76%. Turning to `CCCCCCCCCCCCCCCC(=O)N[C@@H](CCC(=O)NCCCC[C@H](NC(=O)CC[C@H](NC(=O)CC[C@H](NC(=O)COCCOCCNC(=O)COCCOCCNC(=O)COCCOCCNC(=O)[C@H](CCCCNC(C)=O)NC(=O)[C@H](CCCCN)NC(=O)[C@H](CCCNC(=N)N)NC(=O)C(C)(C)NC(=O)[C@H](CO)NC(=O)[C@H](Cc1c[nH]c2ccccc12)NC(=O)[C@@H](NC(=O)[C@H](CO)NC(=O)[C@H](CCCC)NC(=O)CNC(=O)[C@H](CCC(=O)O)NC(=O)C(C)(C)NC(=O)C(C)(C)NC(=O)[C@@H](NC(=O)[C@H](CCCCNC(C)=O)NC(=O)[C@H](C)NC(=O)[C@H](CCCNC(=N)N)NC(=O)[C@@H](NC(=O)[C@H](CCCCN)NC(=O)[C@H](CCC(=O)O)NC(=O)[C@H](CCCNC(=N)N)NC(=O)CNC(=O)[C@H](CCC(=O)O)NC(=O)[C@H](CC(C)C)NC(C)=O)C(C)C)[C@@H](C)CC)[C@@H](C)O)C(=O)O)C(=O)O)C(N)=O)C(=O)O` [compound 117] (Ac-LEGREKVRAK(Ac)I[Aib][Aib]EG[Nle]STWS[Aib]RKK(Ac)[AEEA][AEEA][AEEA][γGlu][γGlu]K([γGlu-Palmitoyl])-NH2), the Emax came to 86%.

As to `CCCCCCCCCCCCCCCCCC(=O)N[C@@H](CCC(=O)N[C@@H](CCC(=O)N[C@@H](CCC(=O)N[C@@H](CCC(=O)NCCOCCOCC(=O)NCCOCCOCC(=O)NCCOCCOCC(=O)NCCCC[C@H](NC(=O)[C@H](CCCCN)NC(=O)[C@H](CCCCN)NC(=O)[C@H](CCCNC(=N)N)NC(=O)C(C)(C)NC(=O)[C@H](CO)NC(=O)[C@H](Cc1c[nH]c2ccccc12)NC(=O)[C@@H](NC(=O)[C@H](CO)NC(=O)[C@H](CCC(N)=O)NC(=O)CNC(=O)[C@H](CCC(=O)O)NC(=O)C(C)(C)NC(=O)C(C)(C)NC(=O)[C@@H](NC(=O)[C@H](CCCCNC(C)=O)NC(=O)[C@H](C)NC(=O)[C@H](CCCNC(=N)N)NC(=O)[C@@H](NC(=O)[C@H](CCCCN)NC(=O)[C@H](CCC(=O)O)NC(=O)[C@H](CCCNC(=N)N)NC(=O)CNC(=O)[C@H](CCC(=O)O)NC(=O)[C@H](CC(C)C)NC(C)=O)C(C)C)[C@@H](C)CC)[C@@H](C)O)C(N)=O)C(=O)O)C(=O)O)C(=O)O)C(=O)O` [compound 115] (Ac-LEGREKVRAK(Ac)I[Aib][Aib]EGQSTWS[Aib]RKKK([AEEA-AEEA-AEEA-γGlu-γGlu-γGlu-γGlu-Stearoyl])-NH2), the EC50 is 0.17 nM and the Emax is 93%. As to `CCCCCCCCCCCCCCCCCC(=O)N[C@@H](CCC(=O)N[C@@H](CCC(=O)N[C@@H](CCC(=O)NCCOCCOCC(=O)NCCOCCOCC(=O)NCCOCCOCC(=O)NCCCC[C@H](NC(=O)[C@H](CC(C)C)NC(=O)[C@H](CCCCN)NC(=O)[C@H](CCCNC(=N)N)NC(=O)C(C)(C)NC(=O)[C@H](CO)NC(=O)[C@H](Cc1c[nH]c2ccccc12)NC(=O)[C@@H](NC(=O)[C@H](CO)NC(=O)[C@H](CCCC)NC(=O)CNC(=O)[C@H](CCC(=O)O)NC(=O)C(C)(C)NC(=O)C(C)(C)NC(=O)[C@@H](NC(=O)[C@H](CCCCNC(C)=O)NC(=O)[C@H](C)NC(=O)[C@H](CCCNC(=N)N)NC(=O)[C@@H](NC(=O)[C@H](CCCCN)NC(=O)[C@H](CCC(=O)O)NC(=O)[C@H](CCCNC(=N)N)NC(=O)CNC(=O)[C@H](CCC(=O)O)NC(=O)[C@H](CC(C)C)NC(C)=O)C(C)C)[C@@H](C)CC)[C@@H](C)O)C(N)=O)C(=O)O)C(=O)O)C(=O)O` [compound 86] (Ac-LEGREKVRAK(Ac)I[Aib][Aib]EG[Nle]STWS[Aib]RKLK([AEEA-AEEA-AEEA-γGlu-γGlu-γGlu-Stearoyl])-NH2), the EC50 was 0.69 nM and the Emax worked out at 79%. As to `CCCCCCCCCCCCCCCC(=O)N[C@@H](CCC(=O)N[C@@H](CCC(=O)N[C@@H](CCC(=O)NCCCC[C@H](NC(=O)[C@H](CCCCN)NC(=O)[C@H](CCCCN)NC(=O)[C@H](CCCNC(=N)N)NC(=O)C(C)(C)NC(=O)[C@H](CO)NC(=O)[C@H](Cc1c[nH]c2ccccc12)NC(=O)[C@@H](NC(=O)[C@H](CO)NC(=O)[C@H](CCCC)NC(=O)CNC(=O)[C@H](CCC(=O)O)NC(=O)C(C)(C)NC(=O)C(C)(C)NC(=O)[C@@H](NC(=O)[C@H](C)NC(=O)[C@H](C)NC(=O)[C@H](CCCNC(=N)N)NC(=O)[C@@H](NC(=O)[C@H](CCCCN)NC(=O)[C@H](CCC(=O)O)NC(=O)[C@H](CCCNC(=N)N)NC(=O)CNC(=O)[C@H](CCC(=O)O)NC(=O)[C@H](CC(C)C)NC(=O)[C@H](CCC(=O)O)NC(C)=O)C(C)C)[C@@H](C)CC)[C@@H](C)O)C(N)=O)C(=O)O)C(=O)O)C(=O)O` [compound 6] (Ac-ELEGREKVRAAI[Aib][Aib]EG[Nle]STWS[Aib]RKKK([γGlu-γGlu-γGlu-Palmitoyl])-NH2), the Emax was 100%.

Values taken from patent publication US10988523B2, “Modified lipidated Relaxin B chain peptides and their therapeutic use” (Sanofi, priority 2018, dated 2021).
